PMC12838644, “Dihydrotanshinone as a Natural Product-Based CYP17A1 Lyase Inhibitor for Hyperandrogenic Disorders” (Biomolecules, 2026)
Like-named read-outs stand apart in the source and are kept apart here.

Columns and labels:
CYP17A1 17α-hydroxylase = biological target: T1, CYP17A1 17α-hydroxylase (Homo sapiens, UniProt P05093); test: CYP17A1 17α-hydroxylase activity assay (progesterone to 17OH-progesterone, reconstituted POR/CYP17A1); assay type: biochemical; settings: for inhibition at 10 µM: read-out: % Inhibition CYP17A1-OH
T1 sequence (P05093 1-508): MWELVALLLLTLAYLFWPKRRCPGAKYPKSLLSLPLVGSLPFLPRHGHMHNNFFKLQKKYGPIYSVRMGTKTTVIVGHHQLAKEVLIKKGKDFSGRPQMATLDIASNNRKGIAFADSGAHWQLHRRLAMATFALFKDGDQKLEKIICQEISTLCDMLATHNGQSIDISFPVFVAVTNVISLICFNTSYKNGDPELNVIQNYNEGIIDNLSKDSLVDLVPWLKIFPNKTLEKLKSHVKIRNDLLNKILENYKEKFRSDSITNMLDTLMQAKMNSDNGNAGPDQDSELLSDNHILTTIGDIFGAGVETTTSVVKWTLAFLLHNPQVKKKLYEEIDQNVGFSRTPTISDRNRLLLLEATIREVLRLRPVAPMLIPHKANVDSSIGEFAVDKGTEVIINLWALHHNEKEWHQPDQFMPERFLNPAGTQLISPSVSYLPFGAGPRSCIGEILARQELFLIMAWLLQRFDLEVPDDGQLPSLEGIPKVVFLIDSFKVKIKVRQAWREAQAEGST
Procedure: (§1) Assay of CYP17A1 17α-hydroxylase and 17,20-lyase activities were performed as described previously. The 17α-hydroxylase activity was measured by conversion of progesterone to 17OH-progesterone, while production of DHEA from 17OH-pregnenolone was used for monitoring the 17,20-lyase activity of CYP17A1. In vitro CYP17A1 assays were performed using a liposome system consisting of human p450 oxidoreductase (POR) and CYP17A1 at a ratio of 3:4 (POR: CYP17A1). The final assay mixture consisted of proteins (37.5 nmol POR: 50 nmol CYP17A1), 10 mM MgCl2, 6 mM potassium acetate (KOAc), 0.05 mg/mL DLPC,1 mM reduced Glutathione in 50 mM HEPES-NaOH buffer (pH 7.4), and the reaction volume was 200 μL. The drugs were added to the final mixture and incubated for 1h before the catalytic reaction was initiated by the addition of NADPH to 1 mM final concentration. Radiolabeled [^14C]-progesterone (10,000 cpm in 1 µM) was used as a tracer in each reaction. Steroids were extracted and separated by thin-layer chromatography (TLC) on silica gel (SIL G/UV254) TLC plates (Macherey-Nagel, Oensingen, Switzerland) as previously described.

CYP17A1 17,20-lyase = biological target: T2, CYP17A1 17,20-lyase (Homo sapiens, UniProt P05093); test: CYP17A1 17,20-lyase activity assay (DHEA from 17OH-pregnenolone, POR, CYP17A1 and cytochrome b5); assay type: biochemical; settings: for Residual 17,20-lyase activity: % of DMSO control; for Lyase/CYP21A2 Selectivity Index: (% Inhibition Lyase)/(% Inhibition CYP21A2) at 10 µM (SM 10 µg/mL); for inhibition at 10 µM: read-out: % Inhibition CYP17A1-Lyase; for Lyase/OH Selectivity Index: (% Inhibition Lyase)/(% Inhibition OH) at 10 µM (SM 10 µg/mL)
T2 sequence (P05093 1-508): T1 sequence (P05093 1-508)
Procedure: as §1, with “The final assay mixture consisted of proteins (37.5 nmol POR: 50 nmol CYP17A1), 10 mM MgCl2, 6 mM potassium acetate (KOAc), 0.05 mg/mL DLPC,1 mM reduced Glutathione in 50 mM HEPES-NaOH buffer (pH 7.4), and the reaction volume was 200 μL.” left out
In vitro CYP17A1 17,20-lyase activity assays were performed using POR, CYP17A1 and cytochrome b5 as described previously. The final assay mixture consisted of proteins, 10 mM MgCl2, 6 mM KOAc, 0.05 mg/mL DLPC, 1 mM reduced glutathione in 50 mM HEPES-NaOH buffer (pH 7.4), and the reaction volume was 200 μL. The drugs were added to the final mixture and incubated for 1h before the catalytic reaction was initiated by the addition of NADPH to 1 mM final concentration. Radiolabeled [^3H]-17OH-pregnenolone (50,000 cpm in 1 µM) was added as a tracer and the enzyme activity was measured by using the scintillation counter in the water release assay.

RWPE-1 cells = test: alamarBlue cytotoxicity assay, RWPE-1; assay type: cell-based; settings: Homo sapiens, read-out: RWPE-1 (IC50)
Procedure: (§2) RWPE-1 cells (ATCC: CRL-36O7) were cultured in keratinocyte serum-free media (K-SFM) supplemented with 0.05 mg/mL bovine pituitary extract and 5 ng/mL epidermal growth factor, and 1% penicillin (100 U/mL; Thermo Fisher Scientific, Waltham, MA, USA), and streptomycin (100 μg/mL; GIBCO). […] Passage numbers remained below 30 as per standard procedures. All cell lines were validated and characterized before use to ensure their authenticity and reliability. Routine mycoplasma testing was conducted to confirm that the cells were free from contamination. Additionally, key functional and morphological characteristics were assessed to verify their alignment with previously reported profiles.
(§3) The alamarBlue® assay (Thermo Fisher Scientific, Waltham, MA USA) was conducted as previously described. RWPE-1 cells, HEK-293 cells, and NCI-H295R cells were plated in 96-well plates at 10,000 cells per well and incubated overnight at 37 °C with 5% CO2. […] Cells were incubated for an additional 24 h. Cell viability was measured using the alamarBlue® assay. Post-incubation, 0.05 mg/mL alamarBlue® solution in phosphate-buffered saline (PBS) was added to each well. The plates were incubated in the dark at 37 °C with 5% CO2 for 4 h, and fluorescence was measured at an excitation wavelength of 540 nm and an emission wavelength of 590 nm. Cell viability was calculated relative to the control sample treated with DMSO. All experiments were conducted in triplicate.

HEK-293T cells = test: alamarBlue cytotoxicity assay, HEK-293T; assay type: cell-based; settings: Homo sapiens, read-out: HEK-293T (IC50)
Procedure: as §2, §3

NCI-H295R cells = test: alamarBlue cytotoxicity assay, NCI-H295R; assay type: cell-based; settings: Homo sapiens, read-out: NCI-H295R (IC50)
Procedure: as §2, §3

[1] = 10 µM (SM extract 10 µg/mL), calculated as 100% − % residual activity
[2] = RWPE-1, cytotoxicity, alamarBlue, 24 h incubation, mean ± SD, three experiments
[3] = cytotoxicity, alamarBlue, 24 h incubation, mean ± SD, three experiments

SMILES	Residual 17α-hydroxylase activity (CYP17A1 17α-hydroxylase; % of DMSO control, 10 µM (SM extract 10 µg/mL)) [%]	inhibition at 10 µM (CYP17A1 17α-hydroxylase) [%]	Residual 17,20-lyase activity (CYP17A1 17,20-lyase; 10 µM (SM extract 10 µg/mL)) [%]	Lyase/CYP21A2 Selectivity Index (CYP17A1 17,20-lyase)	inhibition at 10 µM (CYP17A1 17,20-lyase) [%]	IC50 (RWPE-1 cells; RWPE-1, 24 h) [nM]	IC50 (HEK-293T cells; 24 h) [nM]	IC50 (NCI-H295R cells; 24 h) [nM]	inhibition at 10 µM (CYP17A1 17α-hydroxylase; [1]) [%]	inhibition at 10 µM (CYP17A1 17,20-lyase; [1]) [%]	Lyase/OH Selectivity Index (CYP17A1 17,20-lyase)	IC50 (RWPE-1 cells; [2]) [nM]	IC50 (HEK-293T cells; [3]) [nM]	IC50 (NCI-H295R cells; [3]) [nM]
Cc1cccc2c3c(ccc12)C1=C(C(=O)C3=O)[C@@H](C)CO1 [DT, dihydrotanshinone I]	> 93	6.5	43	3.80	56.6	1400 ± 420	1310 ± 470	950 ± 480	–	–	–	–	–	–
Cc1coc2c1C(=O)C(=O)c1c-2ccc2c(C)cccc12 [TAI, tanshinone I]	–	–	72	High ^c	–	–	–	–	< 1	28.2	High ^c	2270 ± 3250	1080 ± 260	1130 ± 630
Cc1coc2c1C(=O)C(=O)c1c-2ccc2c1CCCC2(C)C [TAII, tanshinone IIA]	–	–	57	High ^c	–	–	–	–	< 1	43	High ^c	4500 ± 11800	2260 ± 1920	1200 ± 3440
